Tests used:
[1] = test system: normal fasted beagle dogs; assay: Activity and inter-subject variability, oral liquid formulation, fasted beagle dogs; format: in vivo; conditions: 0.25 mg/kg oral liquid, fasted beagles, blood glucose
Source text: As yet another example, a substantially monodispersed mixture of drug-oligomer conjugates preferably has an inter-subject variability that is less than the inter-subject variability of a polydispersed mixture of drug-oligomer conjugates having the same number average molecular weight as the substantially monodispersed mixture. As will be understood by those skilled in the art, the number average molecular weight of the substantially monodispersed mixture and the number average weight of the polydispersed mixture may be measured by various methods including, but not limited to, size exclusion chromatography. The inter-subject variability may be measured by various methods as will be understood by those skilled in the art. The inter-subject variability is preferably calculated as follows. The area under a dose response curve (AUC) (i.e., the area between the dose-response curve and a baseline value) is determined for each subject. The average AUC for all subjects is determined by summing the AUCs of each subject and dividing the sum by the number of subjects. The absolute value of the difference between the subject's AUC and the average AUC is then determined for each subject. The absolute values of the differences obtained are then summed to give a value that represents the inter-subject variability. Lower values represent lower inter-subject variabilities and higher values represent higher inter-subject variabilities.
An effective animal model for evaluating formulations uses normal fasted beagle dogs. These dogs are given 0.25 mg/kg of insulin conjugates to evaluate the efficacy of various formulations.
The protocol for dog experiments calls for a blood glucose measurement at time zero just before a drug is administered. The oral liquid dosage formulation is then squirted into the back of the dog's mouth. In each case, the dogs received 0.25 mg/kg of this solution. Blood is drawn at 15, 30, 60 and 120 minutes and glucose levels are measured and graphed. The lower the glucose levels, the better the activity of the insulin conjugate.

[2] = Enzymatic stability: chymotrypsin digest of calcitonin-oligomer conjugates; format: in vitro ADME
Description: Compounds, supplied as lyophilized powders, are resuspended in 10 mM phosphate buffer pH 7.4 and then submitted for concentration determination by HPLC. The phosphate buffer is used to create a solution with a pH that is optimum for activity of each particular gut enzyme. Aliquots of the compound thus prepared are transferred to 1.7 mL microcentrifuge tubes and shaken in a 37° C. water bath for 15 minutes to allow compounds to equilibrate to temperature. After 15 minutes, 2 μL of the appropriate concentrated gut enzyme is added to each tube to achieve the final concentration desired. Chymotrypsin and trypsin are resuspended in 1 mM HCl. Also, as a control, compounds are treated with 2 μL of 1 mM HCl. Immediately following additions, 100 μL of sample is removed from the control tube and quenched with either 25 μL of chymotrypsin/trypsin quenching solution (1:1 1% TFA:Isopropanol). This sample will serve as T=0 min. A sampling procedure is repeated at various time intervals depending on the gut enzyme used. […] Trypsin has 30, 60, 120 and 180 minute samples. Once all points have been acquired, a final sample is removed from the control tube to make sure that observed degradation is not temperature or buffer related. […] RP-BPLC (acetonitrile gradient) is used to determine AUC for each sample and % degradation is calculated based from the T=0 min control. […]

[3] = Enzymatic stability: trypsin digest of calcitonin-oligomer conjugates; format: in vitro ADME; conditions: 10 mM phosphate buffer, control tube without enzyme, pH 7.4, Control tube (1 mM HCl, no enzyme)
Description: Compounds, supplied as lyophilized powders, are resuspended in 10 mM phosphate buffer pH 7.4 and then submitted for concentration determination by HPLC. The phosphate buffer is used to create a solution with a pH that is optimum for activity of each particular gut enzyme. Aliquots of the compound thus prepared are transferred to 1.7 mL microcentrifuge tubes and shaken in a 37° C. water bath for 15 minutes to allow compounds to equilibrate to temperature. After 15 minutes, 2 μL of the appropriate concentrated gut enzyme is added to each tube to achieve the final concentration desired. Chymotrypsin and trypsin are resuspended in 1 mM HCl. Also, as a control, compounds are treated with 2 μL of 1 mM HCl. Immediately following additions, 100 μL of sample is removed from the control tube and quenched with either 25 μL of chymotrypsin/trypsin quenching solution (1:1 1% TFA:Isopropanol). This sample will serve as T=0 min. A sampling procedure is repeated at various time intervals depending on the gut enzyme used. Chymotrypsin has 15, 30 and 60 minute samples. Trypsin has 30, 60, 120 and 180 minute samples. Once all points have been acquired, a final sample is removed from the control tube to make sure that observed degradation is not temperature or buffer related. The chymotrypsin and trypsin samples may be collected directly into HPLC vials. RP-BPLC (acetonitrile gradient) is used to determine AUC for each sample and % degradation is calculated based from the T=0 min control. The results are provided below in Tables 1 to 4.

[4] = test system: Male CF-1 mice; assay: Serum calcium lowering after single oral dose in fasted mice; format: in vivo; conditions: single oral dose 2.0 μg/kg, average serum calcium
Description: Male CF-1 mice (Charles River, Raleigh, N.C.) weighing […] were housed in the Nobex vivarium in a light—(L:D cycle of 12:12, lights on at 0600 h), temperature—(21-23° C.), and humidity—(40-60% relative humidity) controlled room. Animals were permitted free access to laboratory chow (PMI Nutrition) and tap water. Mice were allowed to acclimate to housing conditions for 48-72 hours prior to the day of experiment.
Prior to dosing, mice were fasted overnight and water was provided ad libitum. Mice were randomly distributed into groups of five animals per time point and were administered a single oral dose of a PEG7-octyl-sCT, diconjugate (Octyl Di) according to the present invention or salmon calcitonin (sCT or Calcitonin) for comparison purposes. […]
At appropriate time points, mice were ether-anesthetized, the vena cavae exteriorized, and blood samples were obtained via a syringe fitted with a 25-gauge needle. […] Total serum calcium was determined for each animal using a calibrated Vitros DT60 II analyzer.
Serum calcium data were plotted and pharmacokinetic parameters determined via curve-fitting techniques using SigmaPlot software Version 4.1). Means and standard deviations (or standard errors) were calculated and plotted to determine effect differences among dosing groups.

Molecule	activity (glucose lowering) versus polydispersed PEG7AVG-hexyl-insulin, monoconjugate [1]	inter-subject variability versus polydispersed PEG7AVG-hexyl-insulin, monoconjugate [1]	further results
PEG7-hexyl-insulin, monoconjugate: human insulin monoconjugated at the B29 position with the activated oligomer of Example 18	higher activity	less inter-subject variability	–
CC(C)C[C@H](NC(=O)[C@H](CCCCN)NC(=O)CNC(=O)[C@H](CC(C)C)NC(=O)[C@@H](NC(=O)[C@@H]1CSSC[C@H](N)C(=O)N[C@@H](CO)C(=O)N[C@@H](CC(N)=O)C(=O)N[C@@H](CC(C)C)C(=O)N[C@@H](CO)C(=O)N[C@@H]([C@@H](C)O)C(=O)N1)C(C)C)C(=O)N[C@@H](CO)C(=O)N[C@@H](CCC(N)=O)C(=O)N[C@@H](CCC(=O)O)C(=O)N[C@@H](CC(C)C)C(=O)N[C@@H](Cc1c[nH]cn1)C(=O)N[C@@H](CCCCN)C(=O)N[C@@H](CC(C)C)C(=O)N[C@@H](CCC(N)=O)C(=O)N[C@H](C(=O)N[C@@H](Cc1ccc(O)cc1)C(=O)N1CCC[C@H]1C(=O)N[C@@H](CCCNC(=N)N)C(=O)N[C@H](C(=O)N[C@@H](CC(N)=O)C(=O)N[C@H](C(=O)NCC(=O)N[C@@H](CO)C(=O)NCC(=O)N[C@H](C(=O)N1CCC[C@H]1C(N)=O)[C@@H](C)O)[C@@H](C)O)[C@@H](C)O)[C@@H](C)O [Salmon Calcitonin, salmon calcitonin, reference compound]	–	–	remaining at 10 min ([2]; chymotrypsin (0.5 U/mL) in phosphate buffer, pH 7.4, Non-Formulated, time 10 min, pH 7.4, 37° C., read-out: % Remaining Following 0.5 U/mL Chymotrypsin Digest): 73%
PEG4-hexyl-insulin, monoconjugate: non-polydispersed mixture of mPEG4-hexyl-insulin, B29 monoconjugates	higher activity	less inter-subject variability	–
PEG10-hexyl-insulin, monoconjugate: non-polydispersed mixture of mPEG10-hexyl-insulin, B29 monoconjugates	higher activity	less inter-subject variability	–
COCCOCCOCCOCCOCCOCCOCCOCCCCCCCC(=O)NCCCC[C@H](NC(=O)CNC(=O)[C@H](CC(C)C)NC(=O)[C@@H](NC(=O)[C@@H]1CSSC[C@H](N)C(=O)N[C@@H](CO)C(=O)N[C@@H](CC(N)=O)C(=O)N[C@@H](CC(C)C)C(=O)N[C@@H](CO)C(=O)N[C@@H]([C@@H](C)O)C(=O)N1)C(C)C)C(=O)N[C@@H](CC(C)C)C(=O)N[C@@H](CO)C(=O)N[C@@H](CCC(N)=O)C(=O)N[C@@H](CCC(=O)O)C(=O)N[C@@H](CC(C)C)C(=O)N[C@@H](Cc1c[nH]cn1)C(=O)N[C@@H](CCCCNC(=O)CCCCCCCOCCOCCOCCOCCOCCOCCOCCOC)C(=O)N[C@@H](CC(C)C)C(=O)N[C@@H](CCC(N)=O)C(=O)N[C@H](C(=O)N[C@@H](Cc1ccc(O)cc1)C(=O)N1CCC[C@H]1C(=O)N[C@@H](CCCNC(=N)N)C(=O)N[C@H](C(=O)N[C@@H](CC(N)=O)C(=O)N[C@H](C(=O)NCC(=O)N[C@@H](CO)C(=O)NCC(=O)N[C@H](C(=O)N1CCC[C@H]1C(N)=O)[C@@H](C)O)[C@@H](C)O)[C@@H](C)O)[C@@H](C)O	–	–	remaining at 1 h ([2]; 10 mM phosphate buffer, control tube without enzyme, pH 7.4, Control tube (1 mM HCl, no enzyme), Non-Formulated, time 60 min): 104%; remaining at 1 h ([3]; time 60 min): 103%; remaining at 2 h ([3]; time 120 min): 106%; remaining at 3 h ([3]; time 180 min): 104%; % Baseline Calcium Drop at 2.0 μg/kg dose [4]: 21.0%
